# US20150191606A1, “USE OF VANADIUM-CONTAINING PARTICLES AS A BIOCIDE” (priority 2012, published 2015)
# B1: wild-type V-CPO from C. inaequalis: wild-type vanadium chloroperoxidase from C. inaequalis (protein, UniProt P49053 1-609, looked up)
# Vanadium chloroperoxidase: MGSVTPIPLPKIDEPEEYNTNYILFWNHVGLELNRVTHTVGGPLTGPPLSARALGMLHLAIHDAYFSICPPTDFTTFLSPDTENAAYRLPSPNGANDARQAVAGAALKMLSSLYMKPVEQPNPNPGANISDNAYAQLGLVLDRSVLEAPGGVDRESASFMFGEDVADVFFALLNDPRGASQEGYHPTPGRYKFDDEPTHPVVLIPVDPNNPNGPKMPFRQYHAPFYGKTTKRFATQSEHFLADPPGLRSNADETAEYDDAVRVAIAMGGAQALNSTKRSPWQTAQGLYWAYDGSNLIGTPPRFYNQIVRRIAVTYKKEEDLANSEVNNADFARLFALVDVACTDAGIFSWKEKWEFEFWRPLSGVRDDGRPDHGDPFWLTLGAPATNTNDIPFKPPFPAYPSGHATFGGAVFQMVRRYYNGRVGTWKDDEPDNIAIDMMISEELNGVNRDLRQPYDPTAPIEDQPGIVRTRIVRHFDSAWELMFENAISRIFLGVHWRFDAAAARDILIPTTTKDVYAVDNNGATVFQNVEDIRYTTRGTREDPEGLFPIGGVPLGIEIADEIFNNGLKPTPPEIQPMPQETPVQKPVGQQPVKGMWEEEQAPVVKEAP
# Assays:
# E. coli [1] = assay: E. coli growth inhibition test, OD at 595 nm; assay type: cell-based
# Protocol: Overnight cultures of E. coli cells (OneShot® Chemically Competent E. Coli, Cat. No. C4040-10, Invitrogen) in LB media (Cat. No. X968.2, Carl-Roth, Germany) were initially done. For the growth inhibition tests cultures were prepared by initially dispersing VO(acac)2 (Sigma Aldrich, 0.08 mg/ml) in 5 ml LB medium to which KBr (1 mM) and H2O2 (100 μM) were added. To start the culture 20 μl of the overnight E. coli stock was added. The cultures were kept at 37° C. with agitation, and the OD was measured at 595 nm at different time points until 180 min (beginning of stationary phase). As controls either only VO(acac)2 or only H2O2/Br^− was added to the cultures in the concentrations given above. For comparative purposes the same assay was done with V2O5 nanowires (Example 1) in the same concentration range as VO(acac)2 (0.08 mg/ml).
# E. coli [2] = assay: Biocidal rosine paint formulations on steel plates, DAPI fluorescence, qualitative; assay type: cell-based; conditions: Br- 1 mM, H2O2, 3 days at 37° C.
# Protocol: A self-polishing rosine formulation was prepared as follows: 22 g of Rosine/Kolophonium (Aldrich) was mixed with 8 g Xylene (Aldrich) and stirred 45 min until well dissolved. Under continuous stirring 0.4 g Thixatrol Max (Elementis) and 1.5 g Bentone SD 1 (Elementis) were added and stirred for at least 5 min. Under continuous stirring 10 g zinc oxide (Aldrich) [optional], 9 g iron oxide red (Aldrich) [optional], 15 g talcum (Aldrich), ×g of biocide and 10-×g of barium sulfate as a filler were added, and the whole mixture was dispersed for at least 15 min at 600-900 rpm. Under stirring 8 g Xylene (Aldrich), 6.7 g Hordaflex LC 50 (Leuna-Tenside) and 8 g petrol 140/180 (Merck) were added.
# Steel plates of 2×2 cm were painted directly with no previous treatment with said rosine formulation by brushing and drying for 3 days at room temperature. No surface characterization was performed. […]
# After incubation the substrates were gently washed with LB media and PBS buffer. Bacterial cells were stained with […] (DAPI, 1 mg/ml), and fluorescence analysis was performed using an Olympus AHBT3 light microscope together with an AH3-RFC reflected light fluorescence attachment. The presence of bacterial colonies was easily detected by the presence of bright blue “dots” or “clusters”. […]
# V-CPO from C. inaequalis = V-CPO from C. inaequalis (Curvularia inaequalis, UniProt P49053, L241V/P395D/T343A); conditions: cited from earlier work
# Chain of V-CPO from C. inaequalis (P49053 whole entry L241V/T343A/P395D): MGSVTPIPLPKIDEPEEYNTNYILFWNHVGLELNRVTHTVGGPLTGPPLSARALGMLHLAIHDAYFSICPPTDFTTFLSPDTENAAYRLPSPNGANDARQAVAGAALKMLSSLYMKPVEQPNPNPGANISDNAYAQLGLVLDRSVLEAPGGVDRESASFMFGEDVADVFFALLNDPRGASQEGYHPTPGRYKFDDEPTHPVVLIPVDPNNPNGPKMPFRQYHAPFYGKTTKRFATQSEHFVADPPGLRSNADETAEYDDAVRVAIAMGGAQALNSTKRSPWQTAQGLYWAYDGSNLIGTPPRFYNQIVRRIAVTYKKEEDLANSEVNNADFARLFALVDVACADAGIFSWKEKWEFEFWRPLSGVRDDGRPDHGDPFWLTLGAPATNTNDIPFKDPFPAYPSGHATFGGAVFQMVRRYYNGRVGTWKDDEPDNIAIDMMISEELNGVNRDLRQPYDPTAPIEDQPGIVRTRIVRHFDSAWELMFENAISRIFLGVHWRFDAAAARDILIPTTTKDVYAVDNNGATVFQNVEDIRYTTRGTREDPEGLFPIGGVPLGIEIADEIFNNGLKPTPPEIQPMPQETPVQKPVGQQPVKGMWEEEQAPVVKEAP
Molecule,"Decay in E. coli growth (%) (E. coli [1]; 0.08 mg/ml, KBr 1 mM, H2O2 100 μM as named in sample, 180 min)",antimicrobial activity by itself (E. coli [1]; without H2O2/Br-),adherence of E. coli to painted surface (E. coli [2]; 0.5% biocide in dry film),adherence of E. coli to painted surface (E. coli [2]; 10% biocide in dry film),optimal pH (V-CPO from C. inaequalis)
Vanadyl acetylacetonate [VO(acac)2],6,no relevant antimicrobial activity,inhibited the adhesion of E. coli,inhibited the adhesion of E. coli,
B1,,,,,5.5
